Measurements: patent US11000515B2, “Compounds that interact with the Ras superfamily for the treatment of cancers, inflammatory diseases, rasopathies, and fibrotic disease” (Shy Therapeutics LLC, priority 2017, dated 2021)
Read-outs that look alike come from different tables or passages of the source.

Experiments:
[1] = tested on: TNFα production in RAW 264.7 macrophage cell line; assay: Mouse TNF alpha quantification assay (LPS-stimulated RAW 264.7, ELISA); type: cell-based; conditions: RAW264.7, LPS-stimulated RAW 264.7 macrophage cell line, read-out: TNF-α % Inhibition at 30 μM
[2] = tested on: IL6 production in RAW 264.7 macrophage cell line; assay: Mouse IL6 quantification assay (LPS-stimulated RAW 264.7, ELISA); type: cell-based; conditions: RAW264.7, LPS-stimulated RAW 264.7 macrophage cell line, read-out: IL-6 % Inhibition at 30 μM
[3] = biological target: KRas G12D/Q61H double mutant (Homo sapiens (Human), UniProt P01116, G12D/Q61H); assay: Ras GTP binding domain inhibition assay (labeled GTP)
KRas G12D/Q61H double mutant, sequence (P01116-2 other isoform, or with tags, fused parts or gaps G12D/Q61H): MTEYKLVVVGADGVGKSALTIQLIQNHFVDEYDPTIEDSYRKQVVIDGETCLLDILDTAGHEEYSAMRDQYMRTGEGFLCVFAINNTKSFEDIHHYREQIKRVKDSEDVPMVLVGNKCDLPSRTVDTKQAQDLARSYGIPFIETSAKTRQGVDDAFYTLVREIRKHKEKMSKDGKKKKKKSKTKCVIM
Description: (§1) Buffer-I: • 50 mM Tris, pH 7.5 • 150 mM NaCl (optional) • 1 mM MgCl2 • 1 mM DTT. • KRas G12D mutant protein was expressed as a His-tagged protein. Purified His-KRas G12D protein was diluted in buffer-I to a final concentration of 3-10 μg/ml. • 200 μl of the diluted His-KRas G12D protein was added to a nickel coated 96 well plate and incubated overnight at 4° C. • The next day, wells were washed 3× in 200 μl of Buffer-I. • Then 200 μl of Buffer-I were added to each well in the presence of 1% DMSO. • Tested compounds were added to the protein-coated wells at a concentration of 20 μM, and incubated for 3 hours at room temperature. While performing IC50 measurements a serial dilution of all tested concentrations was prepared.
(§2) Then 22 μl of Cy3-GTP or Cy5-GTP was added to each well. The labeled GTP was incubated for 45 min. at room temperature. • Following GTP incubation, wells were washed 3× in Buffer-I, and 200 μl of Buffer-I were added to each well. • Following washes, the amount of bound labeled-GTP was measured with an Eppendorf AF2200 plate reader.
(§3) By substituting KRas G12D mutant protein with KRas G12C mutant, KRas wild type, KRas Q61H mutant, KRas G12D/Q61H double mutant or KRas G12C/Q61H double mutant under the assay conditions described above, KRas G12C mutant KRas wild type, KRas Q61H mutant, KRas G12D/Q61H double mutant and KRas G12C/Q61H double mutant inhibition, respectively, were each determined.

KRas G12D mutant protein = KRas G12D mutant protein (Homo sapiens (Human), UniProt P01116, G12D); assay: as above; conditions: compound at 20 μM
KRas G12D mutant protein, sequence (P01116-2 other isoform, or with tags, fused parts or gaps G12D): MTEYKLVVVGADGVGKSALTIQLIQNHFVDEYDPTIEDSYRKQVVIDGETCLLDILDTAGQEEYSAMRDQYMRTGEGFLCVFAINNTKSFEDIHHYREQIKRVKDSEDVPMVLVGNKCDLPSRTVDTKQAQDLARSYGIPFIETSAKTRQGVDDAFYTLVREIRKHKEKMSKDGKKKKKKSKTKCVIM
Description: The following method was developed as specific assay for KRas G12D mutant protein.
as §1, §2

KRas G12C mutant = KRas G12C mutant (Homo sapiens (Human), UniProt P01116, G12C); assay: as above; conditions: compound at 20 μM
KRas G12C mutant, sequence (P01116-2 other isoform, or with tags, fused parts or gaps G12C): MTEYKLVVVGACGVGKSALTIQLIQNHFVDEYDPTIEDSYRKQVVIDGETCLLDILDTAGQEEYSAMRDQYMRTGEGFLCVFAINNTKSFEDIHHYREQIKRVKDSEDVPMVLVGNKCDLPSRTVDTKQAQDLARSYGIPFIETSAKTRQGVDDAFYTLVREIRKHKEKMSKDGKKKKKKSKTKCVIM
Description: as §1, §2, §3

KRas wild type = KRas wild type (Homo sapiens (Human), UniProt P01116); assay: as above; conditions: compound at 20 μM
KRas wild type, sequence (P01116-2 other isoform, or with tags, fused parts or gaps): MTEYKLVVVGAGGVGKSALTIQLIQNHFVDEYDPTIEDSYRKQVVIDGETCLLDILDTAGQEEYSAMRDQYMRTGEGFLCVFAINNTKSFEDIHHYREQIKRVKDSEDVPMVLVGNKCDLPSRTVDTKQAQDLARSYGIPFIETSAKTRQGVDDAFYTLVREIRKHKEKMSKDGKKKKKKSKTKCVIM
Description: as §1, §2, §3

[4] = biological target: KRas G12C/Q61H double mutant (Homo sapiens (Human), UniProt P01116, G12C/Q61H); assay: as above; conditions: compound at 20 μM
KRas G12C/Q61H double mutant, sequence (P01116-2 other isoform, or with tags, fused parts or gaps G12C/Q61H): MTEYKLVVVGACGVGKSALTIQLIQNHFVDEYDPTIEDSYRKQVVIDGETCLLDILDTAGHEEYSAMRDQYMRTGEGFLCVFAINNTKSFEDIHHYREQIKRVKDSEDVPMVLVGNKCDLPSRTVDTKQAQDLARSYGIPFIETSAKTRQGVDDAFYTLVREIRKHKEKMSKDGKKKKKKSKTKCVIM
Description: as §1, §2, §3

KRas Q61H mutant = KRas Q61H mutant (Homo sapiens (Human), UniProt P01116, Q61H); assay: as above; conditions: compound at 20 μM
KRas Q61H mutant, sequence (P01116-2 other isoform, or with tags, fused parts or gaps Q61H): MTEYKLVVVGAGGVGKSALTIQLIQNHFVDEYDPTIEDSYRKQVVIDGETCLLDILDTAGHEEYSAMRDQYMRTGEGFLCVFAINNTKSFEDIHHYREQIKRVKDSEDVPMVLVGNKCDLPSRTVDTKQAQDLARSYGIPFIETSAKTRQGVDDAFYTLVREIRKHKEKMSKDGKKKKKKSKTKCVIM
Description: as §1, §2, §3

[5] = 20 μM, read-out: KRas G12D Q61H % Inh.
[6] = compound at 20 μM, read-out: % Inhibition at 20 μM, KRas G12D Q61H

| SMILES | inhibition at 30 µM [1] [%] | inhibition at 30 µM [2] [%] | further results |
| --- | --- | --- | --- |
| O=C(CCc1cnn(-c2ccccc2)c1)Nc1nnc(-c2ccccn2)[nH]1 | 1 to 25 | 26 to 50 |  |
| CC(C)C(=O)Nc1nc(CC(=O)Nc2nnc(-c3ccccc3)[nH]2)cs1 | 1 to 25 | 0 |  |
| O=C(Nc1nnc(-c2ccccn2)s1)c1csc(-c2ccco2)n1 | 0 | 51 to 75 |  |
| O=C(Nc1nc(-c2ccccn2)cs1)c1cccc(F)c1 | 0 | 1 to 25 |  |
| COc1cccc(C(=O)Nc2nc(-c3ccccn3)cs2)c1 | 0 | 1 to 25 |  |
| COc1ccc(C(=O)Nc2nc(-c3ccccn3)cs2)cn1 | 51 to 75 | 76 to 100 |  |
| O=C(c1csc2c(O)nc(-c3ccccn3)nc12)N1CCN(c2ccccc2)CC1 | 51 to 75 | 76 to 100 |  |
| Brc1csc2nc(-c3ccccn3)nc(Br)c12 | 76 to 100 | 76 to 100 |  |
| COc1cc(CNc2nc(-c3ccccn3)nc3scc(-c4ccccc4)c23)ccc1OCC(N)=O | 76 to 100 | 76 to 100 |  |
| CN(CC(=O)N1CCOCC1)c1nc(-c2ccccn2)nc2scc(-c3ccccc3)c12 | 1 to 25 | 1 to 25 |  |
| COc1cc(CCNC(=O)c2csc3nc(-c4ccccn4)nc(N4CCOCC4)c23)ccn1 | 0 | 1 to 25 |  |
| CC(C)(C(=O)Nc1cc(-c2ccccn2)nc2sccc12)c1ccc(C#N)cc1 | 1 to 25 | 76 to 100 |  |
| O=C(c1csc2c(O)nc(-c3ccccn3)nc12)N1CCNC(Cc2cccc(F)c2)C1 (stereo not shown) | 1 to 25 | 26 to 50 |  |
| O=C(NCCc1cnc(O)cn1)c1csc2nc(-c3ccccn3)nc(N3CCS(=O)(=O)CC3)c12 | 0 | 51 to 75 |  |
| CC(C)COc1ccc(-c2csc3c(O)nc(-c4ccccn4)nc23)nc1 | 51 to 75 | 76 to 100 |  |
| Nc1nc(-c2ccccn2)nc2scc(Br)c12 | 0 | 1 to 25 |  |
| Nc1nc(-c2ccccn2)nc2c(-c3ccccn3)csc12 | 76 to 100 | 76 to 100 |  |
| CN(C)Cc1cc(F)cc(-c2csc3c(O)nc(-c4ccccn4)nc23)c1 | 51 to 75 | 76 to 100 |  |
| COCCNc1nc(-c2cccc(C)n2)nc2sc(-c3ccccc3)c(-c3ccccc3)c12 | 26 to 50 | 26 to 50 |  |
| CC(C)COc1ccc(-c2csc3c(O)nc(-c4nccn4C)nc23)cn1 | 76 to 100 | 76 to 100 |  |
| CC(C)c1ccc(NC(=O)CCc2c(O)cc(-c3ccccn3)nc2O)cc1 |  |  | inhibition at 20 µM [3, 5]: 51 to 75% |
| CCN(CC)S(=O)(=O)c1cc(C)c(C)c(NC(=O)CCc2c(C)cc(-c3ccccn3)nc2O)c1 |  |  | inhibition at 20 µM [3, 5]: 51 to 75% |
| CS(=O)(=O)CCCC(=O)N1CCCc2c(O)nc(-c3ccccn3)nc21 |  |  | KRas G12D Q61H % Inh. ([3]; 20 μM): C (C = 51-75% inhibition) |
| O=C(CCCc1cccnc1)N1CCCc2c(O)nc(-c3ccccn3)nc21 |  |  | inhibition at 20 µM (KRas G12D mutant protein): 51 to 75%; inhibition at 20 µM (KRas G12C mutant): 51 to 75%; inhibition at 20 µM [3, 6]: 51 to 75%; inhibition at 20 µM (KRas wild type): 25 to 50% |
| O=C(c1csc2c(O)nc(-c3ccccn3)nc12)N1CCN(c2cccnc2)CC1 |  |  | inhibition at 20 µM (KRas G12D mutant protein): 51 to 75%; inhibition at 20 µM (KRas G12C mutant): 25 to 50%; inhibition at 20 µM [3, 6]: 51 to 75%; inhibition at 20 µM (KRas wild type): 76 to 100% |
| COc1ccc(CCOC(=O)Nc2ccnc(-c3ccccn3)n2)cn1 |  |  | inhibition at 20 µM [3, 6]: 25 to 50% |
| O=C(NCCc1cncs1)c1csc2nc(-c3ccccn3)nc(N3CCOCC3)c12 |  |  | inhibition at 20 µM [4]: 1 to 25% |
| Oc1nc(-c2ccccn2)nc2ccsc12 |  |  | inhibition at 20 µM (KRas G12D mutant protein): 1 to 25%; inhibition at 20 µM (KRas G12C mutant): 25 to 50%; inhibition at 20 µM [4]: 25 to 50%; inhibition at 20 µM [3, 6]: 25 to 50%; inhibition at 20 µM (KRas Q61H mutant): 51 to 75%; inhibition at 20 µM (KRas wild type): 1 to 25% |
| Cc1cc2nc(-c3ccccn3)nc(O)c2s1 |  |  | inhibition at 20 µM (KRas G12C mutant): 1 to 25%; inhibition at 20 µM (KRas wild type): 25 to 50% |
